Laboratory results reported in patent publication US9187492B2, “Pyripyropene derivative having ACAT2 inhibiting activity and stable to metabolizing enzymes” (School Juridical Person Kitasato Institute, priority 2010, dated 2015).
pIC50: −log10 of the molar value. Where two headings read alike, the source gives them in different places.

What was measured:
[1] = Stability against metabolizing enzymes in the liver (hepatic microsome); conditions: time until remaining amount reached 50%, 37° C.; for half-life at 6 μg/mL: female, Sprague-Dawley (SD), rat, liver microsomes, pH 7.4, Half-life; for Half-life: female SD rat hepatic microsome, 6 μg/mL, pH 7.4
ACAT2 = target: T1, ACAT2 (Mus musculus, UniProt O88908); test: Measurement of ACAT2-inhibiting activity (murine hepatic microsome, [14C]cholesteryl oleate formation); format: biochemical
T1 construct: The resulting sediment was collected as a microsome fraction; from tissue; host or cells: mouse liver (hepatic microsome membrane fraction)
T1 sequence (O88908 1-525): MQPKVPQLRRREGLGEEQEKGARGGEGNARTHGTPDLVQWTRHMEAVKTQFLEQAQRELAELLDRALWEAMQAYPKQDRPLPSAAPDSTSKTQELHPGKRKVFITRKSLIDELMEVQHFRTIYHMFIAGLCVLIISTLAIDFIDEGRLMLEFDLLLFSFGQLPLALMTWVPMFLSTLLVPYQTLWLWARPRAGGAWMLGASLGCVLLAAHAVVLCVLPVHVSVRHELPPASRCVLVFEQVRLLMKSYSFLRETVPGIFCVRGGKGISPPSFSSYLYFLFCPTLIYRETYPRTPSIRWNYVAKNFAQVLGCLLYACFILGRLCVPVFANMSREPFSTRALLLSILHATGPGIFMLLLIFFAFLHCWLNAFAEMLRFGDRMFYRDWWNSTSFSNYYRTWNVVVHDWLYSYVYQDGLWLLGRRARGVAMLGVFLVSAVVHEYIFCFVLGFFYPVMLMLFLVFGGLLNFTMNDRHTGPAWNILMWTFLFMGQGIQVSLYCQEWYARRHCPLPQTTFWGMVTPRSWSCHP
Method: The enzyme source which was used was a membrane fraction derived from murine hepatic microsome. Mouse livers were homogenized in buffer solution A (50 mM Tris HCl solution (pH 7.8), 1 mM ethylene diamine tetraacetate, and 1 mM phenylmethanesulfonyl fluoride) using a Potter-type homogenizer (Tokyo-Riko). The homogenate was centrifuged at 12000×g, and the supernatant was subjected to ultracentrifugation at 100000×g. The resulting sediment was collected as a microsome fraction, and this fraction was adjusted so as to have a protein concentration of 5 mg/mL using buffer solution A.
As a control, 10 μL of methanol were used in place of the pyripyropene derivative.
The chloroform layer was evaporated to dryness and was used to spot a thin layer chromatography plate (silica gel plate, Merck, 0.5 mm thickness). Elution for separation was carried out using hexane/diethyl ether/acetic acid (70:30:1, v/v) as an eluant.
wherein the background is the radioactivity of a thin layer chromatography plate which was not spotted.

[2] = murine hepatic microsome membrane fraction, 5 min at 37° C.; read-out: Inhibitory activity (concentration required for 50% inhibition of ACAT 2 = IC50)
[3] = relative to PRD 043; class symbols

CC12CO[C@@H](c3ccccc3F)O[C@H]1CC[C@@]1(C)C2C[C@H](OC(=O)c2ccc(F)cc2)[C@@]2(C)Oc3cc(-c4cccnc4)oc(=O)c3[C@H](O)C12 (stereo partly drawn) [PRD164, 1,11-O-o-fluorobenzylidene-7-O-p-fluorobenzoyl-1,7,11-trideacetylpyripyropene A]
half-life at 6 μg/mL [1]: ≥ 9 h
Half-life [1]: >9 h
pIC50 (ACAT2; [2]): 9.00 to 9.30
Specific activity ((IC50 of the test compound)/(IC50 of PRD 043)) (ACAT2; [3]): +++ (10<specific activity≦20)

Cc1ccc([C@@H]2OCC3(C)C4C[C@H](OC(=O)c5ccc(C#N)cc5)[C@@]5(C)Oc6cc(-c7cccnc7)oc(=O)c6[C@H](O)C5[C@@]4(C)CC[C@@H]3O2)cc1 (stereo partly drawn) [PRD126, 1,11-O-p-methylbenzylidene-7-O-p-cyanobenzoyl-1,7,11-trideacetylpyripyropene A]
half-life at 6 μg/mL [1]: ≥ 9 h
Half-life [1]: >9 h
pIC50 (ACAT2; [2]): 9.00 to 9.30
Specific activity ((IC50 of the test compound)/(IC50 of PRD 043)) (ACAT2; [3]): +++ (10<specific activity≦20)

COc1ccc(CNC(=O)C2(C)C3C[C@H](OC(=O)c4ccc(C#N)cc4)[C@@]4(C)Oc5cc(-c6cccnc6)oc(=O)c5[C@H](O)C4[C@@]3(C)CC[C@@H]2OC(C)=O)c(OC)c1 (stereo partly drawn) [PRD071, 7-O-p-cyanobenzoyl-11-deacetoxymethyl-7-deacetyl-11-(2,4-dimethoxybenzylamino)carbonylpyripyropene A]
half-life at 6 μg/mL [1]: ≥ 9 h
Half-life [1]: >9 h
pIC50 (ACAT2; [2]): > 9.30
Specific activity ((IC50 of the test compound)/(IC50 of PRD 043)) (ACAT2; [3]): ++++ (20<specific activity)

CC12CO[C@@H](c3ccccc3)O[C@H]1CC[C@@]1(C)C2C[C@H](OC(=O)C2CCCCC2)[C@@]2(C)Oc3cc(-c4cccnc4)oc(=O)c3[C@H](O)C12 (stereo partly drawn) [PRD080, 1,11-O-benzylidene-7-O-cyclohexanecarbonyl-1,7,11-trideacetylpyripyropene A]
half-life at 6 μg/mL [1]: > 9 h
pIC50 (ACAT2; [2]): 9.00 to 9.30
Specific activity ((IC50 of the test compound)/(IC50 of PRD 043)) (ACAT2; [3]): +++ (10<specific activity≦20)

CCCCCC(=O)OCC1(C)C2C[C@H](OC(=O)c3ccc(C#N)cc3)[C@@]3(C)Oc4cc(-c5cccnc5)oc(=O)c4[C@H](O)C3[C@@]2(C)CC[C@@H]1OC(=O)CCCCC (stereo partly drawn) [PRD167, 7-O-p-cyanobenzoyl-1,11-O-dihexanoyl-1,7,11-trideacetylpyripyropene A]
half-life at 6 μg/mL [1]: ≥ 9 h
Half-life [1]: >9 h
pIC50 (ACAT2; [2]): 9.00 to 9.30
Specific activity ((IC50 of the test compound)/(IC50 of PRD 043)) (ACAT2; [3]): +++ (10<specific activity≦20)

Cc1cccc(C2OCC3(C)C(CCC4(C)C3CC(OC(=O)c3ccc(C#N)cc3)C3(C)Oc5cc(-c6cccnc6)oc(=O)c5C(O)C43)O2)c1 (stereo not drawn) [PRD157, 1,11-O-m-methylbenzylidene-7-O-p-cyanobenzoyl-1,7,11-trideacetylpyripyropene A]
half-life at 6 μg/mL [1]: ≥ 9 h
Half-life [1]: >9 h
pIC50 (ACAT2; [2]): > 9.30
Specific activity ((IC50 of the test compound)/(IC50 of PRD 043)) (ACAT2; [3]): ++++ (20<specific activity)

CN(C)c1ccc([C@@H]2OCC3(C)C4C[C@H](OC(=O)c5ccc(C#N)cc5)[C@@]5(C)Oc6cc(-c7cccnc7)oc(=O)c6[C@H](O)C5[C@@]4(C)CC[C@@H]3O2)cc1 (stereo partly drawn) [PRD123, 1,11-O-p-dimethylaminobenzylidene-7-O-p-cyanobenzoyl-1,7,11-trideacetylpyripyropene A]
half-life at 6 μg/mL [1]: ≥ 9 h
Half-life [1]: >9 h
pIC50 (ACAT2; [2]): > 9.30
Specific activity ((IC50 of the test compound)/(IC50 of PRD 043)) (ACAT2; [3]): ++++ (20<specific activity)

CC(=O)O[C@H]1CC[C@@]2(C)C(C[C@H](OC(=O)c3ccc(C#N)cc3)[C@@]3(C)Oc4cc(-c5cccnc5)oc(=O)c4[C@H](O)C23)C1(C)COC(=O)c1ccccc1 (stereo partly drawn) [PRD143, 7-O-p-cyanobenzoyl-7,11-dideacetyl-11-O-benzoylpyripyropene A]
half-life at 6 μg/mL [1]: ≥ 9 h
Half-life [1]: >9 h
pIC50 (ACAT2; [2]): 9.00 to 9.30
Specific activity ((IC50 of the test compound)/(IC50 of PRD 043)) (ACAT2; [3]): +++ (10<specific activity≦20)

Cc1cccc(C)c1[C@@H]1OCC2(C)C3C[C@H](OC(=O)c4ccc(C#N)cc4)[C@@]4(C)Oc5cc(-c6cccnc6)oc(=O)c5[C@H](O)C4[C@@]3(C)CC[C@@H]2O1 (stereo partly drawn) [PRD181, 1,11-O-o,o-dimethylbenzylidene-7-O-p-cyanobenzoyl-1,7,11-trideacetylpyripyropene A]
half-life at 6 μg/mL [1]: ≥ 9 h
Half-life [1]: >9 h
pIC50 (ACAT2; [2]): 9.00 to 9.30
Specific activity ((IC50 of the test compound)/(IC50 of PRD 043)) (ACAT2; [3]): +++ (10<specific activity≦20)

COc1ccc(C(OC)O[C@H]2CC3C4(C)CO[C@@H](c5ccccc5)O[C@H]4CC[C@]3(C)C3[C@@H](O)c4c(cc(-c5cccnc5)oc4=O)O[C@@]32C)cc1 (stereo partly drawn) [PRD073, 1,11-O-benzylidene-1,7,11-trideacetyl-7-O-(1-methoxy-1-p-methoxyphenyl)methylpyripyropene A]
half-life at 6 μg/mL [1]: ≥ 9 h
Half-life [1]: >9 h
pIC50 (ACAT2; [2]): 9.00 to 9.30
Specific activity ((IC50 of the test compound)/(IC50 of PRD 043)) (ACAT2; [3]): +++ (10<specific activity≦20)

COC(=O)C1(C)C2C[C@H](OC(=O)c3ccc(C#N)cc3)[C@@]3(C)Oc4cc(-c5cccnc5)oc(=O)c4[C@H](O)C3[C@@]2(C)CC[C@@H]1OC(C)=O (stereo partly drawn) [PRD070, 7-O-p-cyanobenzoyl-11-deacetoxymethyl-7-deacetyl-11-methoxy-carbonylpyripyropene A]
half-life at 6 μg/mL [1]: > 9 h
pIC50 (ACAT2; [2]): 9.00 to 9.30
Specific activity ((IC50 of the test compound)/(IC50 of PRD 043)) (ACAT2; [3]): +++ (10<specific activity≦20)

CC(=O)O[C@H]1CC[C@@]2(C)C(C[C@H](OC(=O)c3ccc(C#N)cc3)[C@@]3(C)Oc4cc(-c5cccnc5)oc(=O)c4[C@H](O)C23)C1(C)C(=O)O (stereo partly drawn) [PRD069, 7-O-p-cyanobenzoyl-11-deacetoxymethyl-7-deacetyl-11-carboxy-pyripyropene A]
half-life at 6 μg/mL [1]: ≥ 9 h
Half-life [1]: >9 h
pIC50 (ACAT2; [2]): > 9.30
Specific activity ((IC50 of the test compound)/(IC50 of PRD 043)) (ACAT2; [3]): ++++ (20<specific activity)

COc1ccccc1[C@@H]1OCC2(C)C3C[C@H](OC(=O)c4ccc(F)cc4)[C@@]4(C)Oc5cc(-c6cccnc6)oc(=O)c5[C@H](O)C4[C@@]3(C)CC[C@@H]2O1 (stereo partly drawn) [PRD162, 1,11-O-o-methoxybenzylidene-7-O-p-fluorobenzoyl-1,7,11-trideacetylpyripyropene A]
half-life at 6 μg/mL [1]: ≥ 9 h
Half-life [1]: >9 h
pIC50 (ACAT2; [2]): 8.00 to 9.00
Specific activity ((IC50 of the test compound)/(IC50 of PRD 043)) (ACAT2; [3]): +++ (10<specific activity≦20)

CC(=O)OCC1(C)C2C[C@H](OC(=O)c3ccccc3C)[C@@]3(C)Oc4cc(-c5cccnc5)oc(=O)c4[C@H](O)C3[C@@]2(C)CC[C@@H]1OC(C)=O (stereo partly drawn) [PRD007, reference compound]
half-life at 6 μg/mL [1]: 1 h
Half-life [1]: <1 h

CC(C)C(=O)OCC1(C)C2C[C@H](OC(=O)c3ccc(C#N)cc3)[C@@]3(C)Oc4cc(-c5cccnc5)oc(=O)c4[C@H](O)C3[C@@]2(C)CC[C@@H]1OC(=O)C(C)C (stereo partly drawn) [PRD056, reference compound]
half-life at 6 μg/mL [1]: ≥ 9 h
Half-life [1]: >9 h
pIC50 (ACAT2; read-out: Inhibitory activity (concentration required for 50% inhibition of ACAT 2 = IC50); murine hepatic microsome membrane fraction, 5 min at 37° C.): < 8.00
Specific activity ((IC50 of the test compound)/(IC50 of PRD 043)) (ACAT2; [3]): − (0.1≦specific activity<1)

CC(=O)OCC1(C)C2C[C@H](OC(=O)C3CCCCC3)[C@@]3(C)Oc4cc(-c5cccnc5)oc(=O)c4[C@H](O)C3[C@@]2(C)CC[C@@H]1OC(C)=O (stereo partly drawn) [PRD021, reference compound]
half-life at 6 μg/mL [1]: 1 h
Half-life [1]: <1 h

CC(=O)OCC1(C)C2C[C@H](OC(=O)c3ccc(C)cc3)[C@@]3(C)Oc4cc(-c5cccnc5)oc(=O)c4[C@H](O)C3[C@@]2(C)CC[C@@H]1OC(C)=O (stereo partly drawn) [PRD009, reference compound]
half-life at 6 μg/mL [1]: 1 h
Half-life [1]: <1 h

CCc1ccc(C(=O)O[C@H]2CC3C(C)(COC(C)=O)[C@@H](OC(C)=O)CC[C@]3(C)C3[C@@H](O)c4c(cc(-c5cccnc5)oc4=O)O[C@@]32C)cc1 (stereo partly drawn) [PRD024, reference compound]
half-life at 6 μg/mL [1]: 1 h
Half-life [1]: <1 h

CC(=O)OCC1(C)C2C[C@H](OC(=O)c3ccccc3F)[C@@]3(C)Oc4cc(-c5cccnc5)oc(=O)c4[C@H](O)C3[C@@]2(C)CC[C@@H]1OC(C)=O (stereo partly drawn) [PRD026, reference compound]
half-life at 6 μg/mL [1]: 1 h
Half-life [1]: <1 h

CC(=O)OCC1(C)C2C[C@H](OC(=O)c3cccc(Br)c3)[C@@]3(C)Oc4cc(-c5cccnc5)oc(=O)c4[C@H](O)C3[C@@]2(C)CC[C@@H]1OC(C)=O (stereo partly drawn) [PRD025, reference compound]
half-life at 6 μg/mL [1]: 1 h
Half-life [1]: <1 h
